Test results: publication PMC12352620, “Fragment-based discovery of dual ligand pharmacophores for lipid-sensing transcription factors for designed polypharmacology” (RSC Medicinal Chemistry, 2025)

Columns and labels:
Type in all cases: cell-based
THRα = target: T1, THRα (Homo sapiens, UniProt P10827); experiment: Gal4-hybrid reporter gene assay THRα; conditions: for EC50 / EC50 THRα: HEK293T, Gal4-hybrid reporter, Inactive = tested 1–300 μM; for max. fold activation THRα: maximum reporter activation vs DMSO (0.1%) treated cells
T1 construct: expressed in transfected cells; host or cells: HEK293T
T1 sequence (P10827 128-410 isoform P10827-2 limits assumed): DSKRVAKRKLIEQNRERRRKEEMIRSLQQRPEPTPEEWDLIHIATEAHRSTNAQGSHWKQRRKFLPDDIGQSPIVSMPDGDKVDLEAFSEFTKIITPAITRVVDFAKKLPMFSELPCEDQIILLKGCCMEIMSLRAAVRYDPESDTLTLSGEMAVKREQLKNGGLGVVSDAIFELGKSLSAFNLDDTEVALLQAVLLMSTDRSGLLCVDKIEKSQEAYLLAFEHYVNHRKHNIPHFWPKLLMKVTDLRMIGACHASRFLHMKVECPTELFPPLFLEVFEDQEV
Protocol: (§1) NR modulation was determined as described previously[45] in Gal4 hybrid reporter gene assays in HEK293T cells (German Collection of Microorganisms and Cell Culture GmbH, DSMZ) using pFR-Luc (Stratagene, La Jolla, CA, USA; reporter), pRL-SV40 (Promega, Madison, WI, USA; internal control) and the hybrid receptor clones pFA-CMV-hTHRα-LBD,[46] pFA-CMV-hPPARγ-LBD,[47] pFA-CMV-hFXR-LBD,[48] and pFA-CMV-hRXRα-LBD,[49] coding for the hinge region and ligand binding domain of the canonical isoform of the respective NR. Cells were cultured in Dulbecco's modified Eagle's medium (DMEM), high glucose supplemented with 10% fetal calf serum (FCS), sodium pyruvate (1 mM), penicillin (100 U mL^−1), and streptomycin (100 μg mL^−1) at 37 °C and 5% CO2 and seeded in 96-well plates (3 × 10^4 cells per well). After 24 h, medium was changed to Opti-MEM without supplements and cells were transiently transfected using Lipofectamine LTX reagent (Invitrogen, Carlsbad, CA, USA) according to the manufacturer's protocol. Five hours after transfection, cells were incubated with the test compounds in Opti-MEM supplemented with penicillin (100 U mL^−1), streptomycin (100 μg mL^−1) and 0.1% DMSO for 16 h before luciferase activity was measured using the Dual-Glo Luciferase Assay System (Promega) according to the manufacturer's protocol on a Tecan Spark luminometer (Tecan Deutschland GmbH, Crailsheim, Germany). Firefly luminescence was divided by Renilla luminescence and multiplied by 1000 resulting in relative light units (RLU) to normalize for transfection efficiency and cell growth. Fold activation was obtained by dividing the mean RLU of test compound by the mean RLU of the untreated control. All samples were tested in at least three biologically independent experiments in duplicates. For dose–response curve fitting and calculation of EC50 values, the equation “[agonist] vs. response − variable slope (four parameters)” was used in GraphPad Prism (version 7.00, GraphPad Software, La Jolla, CA, USA). For selectivity profiling, the hybrid reporter gene assay was performed with Gal4 fusion receptor plasmids for RARα, PPARα, PPARδ, VDR, CAR and LXRα. The following reference agonists were used: triiodothyronine (1 μM, THR), all-trans retinoic acid (1 μM, RAR), GW7647 (1 μM, PPARα), pioglitazone (1 μM, PPARγ), L165041 (1 μM, PPARδ), calcitriol (1 μM, VDR), CITCO (1 μM, CAR), T0901317 (1 μM, LXR), GW4064 (1 μM, FXR), bexarotene (1 μM, RXR).

PPARγ = target: T2, PPARγ (Homo sapiens, UniProt P37231); experiment: Gal4-hybrid reporter gene assay PPARγ; conditions: mean ± S.E.M., n ≥ 3; for max. fold activation PPARγ: maximum reporter activation vs DMSO (0.1%) treated cells
T2 construct: expressed in transfected cells; host or cells: HEK293T
T2 sequence (P37231 238-503 limits assumed): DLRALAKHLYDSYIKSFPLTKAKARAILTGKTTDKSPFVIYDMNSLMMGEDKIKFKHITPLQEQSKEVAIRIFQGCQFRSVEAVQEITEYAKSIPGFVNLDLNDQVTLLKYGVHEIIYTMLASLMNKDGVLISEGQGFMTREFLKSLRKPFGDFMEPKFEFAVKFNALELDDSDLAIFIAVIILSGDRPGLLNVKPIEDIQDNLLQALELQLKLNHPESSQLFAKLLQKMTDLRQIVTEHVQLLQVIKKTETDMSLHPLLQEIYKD
Protocol: as §1

RXRα = target: T3, RXRα (Homo sapiens, UniProt P19793); experiment: Gal4-hybrid reporter gene assay RXRα; conditions: mean ± S.E.M., n ≥ 3; for EC50 / EC50 RXRα: HEK293T, Gal4-hybrid reporter, Inactive = tested 1–300 μM; for max. fold activation RXRα: maximum reporter activation vs DMSO (0.1%) treated cells
T3 construct: expressed in transfected cells; host or cells: HEK293T
T3 sequence (P19793 227-458 limits assumed): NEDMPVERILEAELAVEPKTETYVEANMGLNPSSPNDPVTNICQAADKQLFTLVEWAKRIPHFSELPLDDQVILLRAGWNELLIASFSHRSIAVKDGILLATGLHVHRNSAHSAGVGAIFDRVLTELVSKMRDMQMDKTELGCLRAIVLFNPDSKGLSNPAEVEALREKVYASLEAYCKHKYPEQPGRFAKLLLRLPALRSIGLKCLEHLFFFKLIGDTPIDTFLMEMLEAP
Protocol: as §1

FXR = target: T4, FXR (Homo sapiens, UniProt Q96RI1); experiment: Gal4-hybrid reporter gene assay FXR; conditions: mean ± S.E.M., n ≥ 3; for EC50 / EC50 FXR: HEK293T, Gal4-hybrid reporter, Inactive = tested 1–300 μM; for max. fold activation FXR: maximum reporter activation vs DMSO (0.1%) treated cells
T4 construct: expressed in transfected cells; host or cells: HEK293T
T4 sequence (Q96RI1 262-486 limits assumed): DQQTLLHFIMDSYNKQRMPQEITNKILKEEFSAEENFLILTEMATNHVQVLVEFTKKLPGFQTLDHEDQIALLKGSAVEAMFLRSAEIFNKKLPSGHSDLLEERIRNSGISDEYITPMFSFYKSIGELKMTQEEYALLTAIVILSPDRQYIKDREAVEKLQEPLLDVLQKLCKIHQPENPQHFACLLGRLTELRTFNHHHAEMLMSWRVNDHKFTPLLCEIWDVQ
Protocol: as §1

[1] = HEK293T, Gal4-hybrid reporter, Inactive = tested 1–300 μM

| SMILES | EC50 (THRα; mean ± S.E.M., n ≥ 3) [µM] | max. fold activation THRα (THRα; mean ± S.E.M., n ≥ 3) | EC50 (PPARγ; [1]) [µM] | max. fold activation PPARγ (PPARγ) | EC50 (RXRα) [µM] | max. fold activation RXRα (RXRα) | EC50 (FXR) [µM] | max. fold activation FXR (FXR) | EC50 RXRα (RXRα) | EC50 FXR (FXR) | EC50 THRα (THRα; mean ± S.E.M., n ≥ 3) | type of activity on THRα (THRα; Gal4-hybrid reporter gene assay) | remaining THRα activity (THRα; inverse agonism, % remain., mean ± S.E.M., n ≥ 3) | IC50 (THRα; inverse agonism, mean ± S.E.M., n ≥ 3) [µM] | EC50 PPARγ (PPARγ; [1]) |
| --- | --- | --- | --- | --- | --- | --- | --- | --- | --- | --- | --- | --- | --- | --- | --- |
| O=C(O)/C=C/C=C/c1ccc2c(c1)OCO2 [2.6] | 225 ± 91 | (5.0 ± 1.4-fold) | 137 ± 8 | (9.3 ± 0.5-fold) | 112 ± 19 | (3.4 ± 0.2-fold) | 138 ± 44 | (5.2 ± 0.8-fold) | – | – | – | – | – | – | – |
| O=C(O)c1ccc(Oc2ccccc2)cc1 [compound 44] | 105 ± 28 | (18 ± 3-fold) | 99 ± 12 | (38 ± 3-fold) | – | – | – | – | Inactive | Inactive | – | – | – | – | – |
| O=C(O)/C=C/C(=O)c1ccc(F)cc1F [2.28] | 10 ± 3 | (1.7 ± 0.1-fold) | 51 ± 9 | (11.0 ± 0.5-fold) | – | – | – | – | Inactive | Inactive | – | – | – | – | – |
| COc1ccc(/C=C/C(=O)O)cc1 [2.12] | – | – | 126 ± 9 | (6.7 ± 0.3-fold) | – | – | – | – | Inactive | Inactive | Inactive | – | – | – | – |
| CCc1c(C(=O)O)cnn1-c1ccccc1 [compound 78] | 112 ± 44 | (2.0 ± 0.1-fold) | 237 ± 37 | (6 ± 1-fold) | 166 ± 10 | (1.6 ± 0.1-fold) | – | – | – | Inactive | – | – | – | – | – |
| O=C(O)/C=C/C(=O)c1cccc(Cl)c1 [2.16] | – | – | 34 ± 7 | (8.2 ± 0.5-fold) | – | – | – | – | Inactive | Inactive | Inactive | – | – | – | – |
| Cc1ccccc1C(=O)/C=C/C(=O)O [4.2, (E)-4-Oxo-4-(o-tolyl)but-2-enoic acid] | 31 ± 7 | (2.4 ± 0.3-fold) | 32 ± 1 | (20 ± 1-fold) | 50 ± 4 | (7 ± 2-fold) | 39 ± 3 | (3.8 ± 0.4-fold) | – | – | – | – | – | – | – |
| O=C(O)c1ccc(-c2cccc(F)c2)o1 [compound 53] | 194 ± 54 | (5 ± 1-fold) | 126 ± 17 | (14 ± 1-fold) | 54 ± 9 | (2.2 ± 0.13-fold) | 53 ± 10 | (1.9 ± 0.1-fold) | – | – | – | – | – | – | – |
| N#Cc1c(F)c(F)cc(C(=O)O)c1F [compound 58] | – | – | 39 ± 3 | (9.6 ± 0.5-fold) | – | – | – | – | Inactive | Inactive | Inactive | – | – | – | – |
| C/C(=C\C(=O)O)c1ccc(C(F)(F)F)cc1 [compound 91] | 92 ± 29 | (2.7 ± 0.3-fold) | 255 ± 15 | (4.3 ± 0.2-fold) | 134 ± 41 | (1.9 ± 0.9-fold) | – | – | – | Inactive | – | – | – | – | – |
| COc1ccc(/C=C(/C(=O)O)C(F)(F)F)cc1 [2.19] | 55 ± 19 | (2.6 ± 0.3-fold) | 86 ± 8 | (21 ± 1-fold) | 55 ± 8 | (3.5 ± 0.1-fold) | 108 ± 22 | (3.2 ± 0.4-fold) | – | – | – | – | – | – | – |
| Cc1ccc(C(=O)/C=C/C(=O)O)cc1 [4.4, (E)-4-Oxo-4-(p-tolyl)but-2-enoic acid] | 28 ± 3 | (3.4 ± 0.4-fold) | 37 ± 1 | (17.5 ± 0.9-fold) | 35 ± 1 | (5.3 ± 0.2-fold) | 27 ± 9 | (3.4 ± 0.7-fold) | – | – | – | – | – | – | – |
| O=C(O)COc1ccccc1Cc1ccccc1 [2.43] | – | – | 47 ± 3 | (17.4 ± 0.3-fold) | – | – | – | – | Inactive | Inactive | Inactive | – | – | – | – |
| O=C(O)C(c1ccccc1)(c1ccccc1)c1ccccc1 [compound 19] | – | – | – | – | – | – | – | – | Inactive | Inactive | – | Inverse agonist | (41 ± 5% remain.) | 36 | Inactive |
| CSc1nccn1-c1ccc(C(=O)O)cc1 [compound 30] | 185 ± 16 | (2.5 ± 0.4-fold) | 53 ± 5 | (2.4 ± 0.1-fold) | – | – | 162 ± 31 | (2.2 ± 0.3-fold) | Inactive | – | – | – | – | – | – |
| O=C(O)c1ccc(OCc2ccccc2)cc1 [compound 22] | 95 ± 9 | (8.8 ± 0.5-fold) | 136 ± 19 | (28 ± 2-fold) | – | – | – | – | Inactive | Inactive | – | – | – | – | – |
